# Data published in publication PMC8916643, “Molecular physiology of pumiliotoxin sequestration in a poison frog” (PLoS ONE, 2022).
# Columns and labels:
# [1] = Alkaloid feeding experiment, alkaloid abundance in tissues by LC-MS/MS; assay type: in vivo, Dendrobates tinctorius
# Source text: Lab-reared (non-toxic) Dendrobates tinctorius were housed in terraria with live plants, a water pool, and a shelter. Ten adult females were size-matched, randomly assigned to control or experimental groups (N = 5 per group), and then housed individually. To measure the specific effects of PTX 251D compared to a background toxicity, the control group was fed 0.01% DHQ (Sigma-Aldrich, St. Louis, USA) in a solution of 1% EtOH and the experimental group was fed a solution of 0.01% DHQ and 0.01% PTX 251D (PepTech, Burlington, MA, USA) in a solution of 1% EtOH in water. Each frog was fed 15 μL each day for five days by pipetting the solution directly into the mouth between 10am-12pm. On the afternoon of the fifth day, frogs were euthanized by cervical transection and the dorsal skin, liver, intestines, and oocytes were dissected into Trizol (Thermo Fisher Scientific, Waltham, USA).
# To isolate alkaloids, 0.3 mL of 100% EtOH was added to 1mL of organic layer from the Trizol RNA extraction, inverted 10 times, and stored at room temperature for 2–3 minutes to precipitate genomic DNA, which was pelleted by centrifugation at 2000g for 5 minutes at 4°C. Then, 300 μL of supernatant was transferred to a new microfuge tube. Proteins were precipitated by adding 900 μL of acetone, mixing by inversion for 10–15 seconds, incubating at room temperature for 10 min, and centrifuging at max speed for 10 min at 4°C. Then, 1 mL of the supernatant containing alkaloids was moved into a glass vial and stored at -20°C until dried down completely under a gentle nitrogen gas flow.
# Samples were resuspended in 200 μl of methanol:chloroform 1:1 and 1 μM Nicotine-d3 (used as an internal standard). A 10-point standard curve was prepared in the same solution with DHQ and PTX 251D. A QE+ mass spectrometer coupled to an Ultimate3000 LC (ThermoFisher) was used for analysis. […] The gradient was 0% B for 1 min, then increased to 100% B in 14 min, followed by 5 min at 100% B and 3.5 min at 0% B. Data were quantified using accurate mass, using the standard curve for DHQ and PTX 251D for absolute quantification. aPTX 267A was identified by accurate mass and MS/MS fragmentation similarity to PTX.
# R version 3.6.3 was used for all statistical analyses, and all plotting and statistics code is provided in a S1 File. There were instances in the LC-MS/MS data where the molecules of interest (DHQ, PTX 251D, or aPTX 267A) were not detected, and these were converted to zeros prior to statistical analyses and visualization. […] PTX 251D and DHQ were analyzed separately. The abundance of aPTX 267A was approximated using the area-under-the-curve divided by the internal nicotine standard, and as there is no standard for aPTX 267A, exact pmol values could not be calculated. […]
# mice = settings: cited from earlier work
SMILES,"DHQ abundance across tissue types ([1]; fed orally daily for five days, skin, liver, intestines, oocytes)",aPTX 267A abundance across tissues ([1]; DHQ+PTX feeding group),"aPTX 267A in the skin after PTX 251D feeding ([1]; DHQ+PTX feeding group vs DHQ-fed group, all individuals, area-under-the-curve divided by internal nicotine standard)","lethal dose (hyperactivity, convulsions, and death) (mice; injected into mice)",lethal dose relative to that of PTX 251D (mice; mice)
"C1CCC2NCCCC2C1 (centres unmarked) [DHQ, reference compound]",highest levels occurring in the liver and skin,–,–,–,–
"CCCCC(C)C=C1CN2CCCC2C(C)(O)C1O (centres unmarked) [aPTX 267A, allopumiliotoxin (aPTX 267A)]",–,greater abundance in the skin than the oocytes,higher levels than the DHQ-fed group,2 mg/kg,five times lower
